Converted amounts (≈) assume the structure as drawn.
Legend:
[1] = test system: Anas platyrhynchos; details: short-term; oral; feed; mortality
[2] = test system: Rattus norvegicus
[3] = test system: Apis mellifera; details: acute; dermal; mortality
[4] = test system: Avena sativa; details: chronic/long-term; body weight
[5] = test system: Colinus virginianus; details: mortality
[6] = test system: Daphnia magna; details: chronic/long-term; duration: 21 days; reproduction
[7] = test system: Oncorhynchus mykiss
[8] = test system: Tagia sp.
[9] = test system: Bibionidae; details: chronic/long-term; duration: 28 days; seedling emergence
[10] = test system: Pardosa sp.; details: acute; duration: 7 days; mortality

SMILES: CC(C)N(C(=O)SCC(Cl)=C(Cl)Cl)C(C)C [Tri-allate]
- LC50 [1]: > 1210 mg/kg-day
- NOAEL ([2]; acute, oral, clinical signs): 60 mg/kg-day
- LD50 ([2]; acute, oral, mortality): 1100 mg/kg
- NOEL ([2]; chronic, M, mortality): 9 mg/kg-day
- NOAEL ([2]; chronic, duration: 2 years, oral, diet, mortality): 2.5 mg/kg-day
- NOAEL ([2]; subchronic, duration: 90 days, histopathology: nonneoplastic): 6.4 mg/kg-day
- LD50 [3]: > 100 µg/piece
- NOEC [4]: 11 g/ha
- LD50 ([5]; acute, oral): 1560 mg/kg-day
- NOEC ([5]; reproduction developmental): 54 mg/kg-day
- NOEC [6]: 0.013 mg/L
- LC50 ([7]; acute, duration: 96 hours, mortality): 0.95 µg/mL (≈ 3.12 µM)
- NOEC ([7]; chronic/long-term, duration: 88 days, growth): 0.038 mg/L
- LC50 ([8]; acute, duration: 14 days, mortality): 549 mg/kg
- NOEC ([8]; chronic/long-term, duration: 56 days, reproduction): 27.2 mg/kg
- NOEC [9]: 0.583 mg/L
- LEL [10]: 2280 g/ha

Source: EPA's ToxValDB 9.5 (doi:10.2903/j.efsa.2009.181r)
